From patent US6376666B1 (Nauchno-Issledovatelsky Institut Farmakologii Rossiiskoi …, priority 1994, dated 2002)
Each block holds one compound with its values, some of them ahead of it.

Experiments:
Format in all cases: in vivo
[1] = system: male outbred mice; assay: potentiation of sleep induced by sodium thiopental
Description: The possible hypnotic effects of choosen drugs was estimated according to method of potentiation of sleep induced by sodium thiopental. The male outbred mice weighing 20-25 g were injected i.p. with sodium thiopental at dose of 70 mg/kg. Two parameters were estimated: latent time of sleeping and duration of sleep. The used compounds were administered i.p. 30 min prior injection of sodium thiopental.

[2] = system: C57B1/6 mice; assay: open-field test, C57B1/6 mice (active type of emotional-stress reaction); details: i.p., doses that activate Balb/c mice
Source text: (§1) The main point of this approach consists in comparative analysis of the behavioural effects of tested compounds in two inbred strains of mice Balb/c and C57B1/6 with different hereditary types of emotional-stress reactions (ESR). The anxiolytic effect was estimated as the activation of the locomotor activity of animals with “passive” type of ESR (Balb/c mice). The main index describing the sedative properties of tested drugs was the inhibition of the locomotor activity of mice with “active” type of ESR (C57B1/6 strain). The anxioselectivity was evaluated according to coincidence of doses range which activated or inhibited the behavior of mice of different strains. Earlier this approach has been successfully used for estimation of anxioselective activity of such known drugs as phenazepam [Seredenin S. B. et al., Bull.Exp.Biol.Med., 1979, v.88, N7, p.38; Seredenin S. B. et al., Ann.Inst.Super.Sanita, 1990, v.26, N1, p.81-88], mexidol [Seredenin S. B. et al., Khimiko-Farmatsevt.Zhurnal, 1987, N2, p.134; Vironina T. A., Seredenin S. B., Ann.Inst.Super.Sanita, 1988, v.24, N3, p.461-466] and gidazepam [Seredenin S. B. et al., in: “Gidazepam” Kiev, Naukova Dumka, 1992, p.92; Seredenin S. B., Blednov Yu. A., Phys.Chem.Biol.Med., 1993, v.1, N1, p.53-60].
(§2) Male C57B1/6 and Balb/c mice (“Stolbovaya” animal farm), weighing 20-22 g were used. The animals were housed in a separate animal room in groups of ten and maintained on 12 h light-dark cycle (light from 8.00 till 20.00) with free access to standard food and water during two weeks before experiment. Testing was performed between 9.00 and 13.00. Every used compound was administered intraperitoneally in water solutions 30 min before testing (0,1 ml solution per 10 g of weight). The “open-field” apparatus consisted of cylinder closed from one end, illuminated by four 75 W lamps fixed to the walls 100 cm above the floor. The “open-field” apparatus was 100 cm in diameter and white-painted; the floor was marked with 3 black circles and some radial lines divided the floor into 16 peripheral and 8 central segments. 30 min after injection each animal was placed in the same peripheral square on the floor for 3 min of testing after 1 min exposure in the dark chamber. The following behavior variables were recorded: 1) the number of crossings in the peripheral area (peripheral activity); 2) the number of crossings in the central segments (central activity); 3) the number of rearings (vertical activity); 4) the emotionality was measured as the number of defecations during the test. The sum of all types of locomotor activity was marked as total activity. The t-Student test was used for statistical analysis.

[3] = system: Balb/c mice; assay: open-field test, Balb/c mice (passive type of emotional-stress reaction); parameters: key to Total activity: sum of all locomotor activity counts (crossings + rearings) in 3 min; details: for Number of defecations / Peripheral activity (crossings) / Total activity / Central activity (crossings) / Vertical activity (rearings): M ± mx; for effect on the behavior (locomotor activity) of Balb/c mice in open-field test, in words: i.p., screening
Source text: as §1, §2

[4] = system: outbred male rats; assay: conflict Vogel test (punished licking of water); details: M ± mx
Description: The study of anxiolytic activity of chosen compounds was carried out in the experiments with outbred male rats weighing 180-200 g in standard conflict Vogel' procedure [Voronina T. A. et al., in: “Phenazepam”, Naukova Dumka, Kiev, 1982, p.89, 93, 146]. The main aim of the initial step of experiments was the training of rats to develop the feeling of thirst with following experience of water licking from bottle in the experimental chamber. The animals were deprived of water for 24 hours and were placed in the test chamber for 5-min adaptation period during which they had free access to the drinking bottle. After another 24 h deprivation period the rats were placed again in the test chamber and were allowed to drink water for 5 sec. Immediately afterwards drinking attempts were punished by electric shock (0,5 mA). Under this collision of drinking and protective reflexes the extremal situation was developed. In this situation the anxiety of punishment prevented the licking process. The number of shocks received throughout a 5-min experimental session was recorded.

[5] = system: outbred male mice; assay: rotarod test (myorelaxant activity); details: cut-off 120 sec
Description: The myorelaxant activity of choosen compounds were studied in the outbred male mice weighing 22-25 g in rotarod test [Voronina T. A. et al., in: “Phenazepam”, Naukova Dumka, Kiev, 1982, p.145]. The animals were placed on the horizontal rotarod (D=2 cm) calibrated for a fixed speed of 4 rpm. According to the rotarod experimental protocol, normal motor coordination was defined by the ability of the animals to remain on the rotarod for an arbitrarily selected time of 120 sec.

[6] = 0.5 mg/kg i.p. 30 min before thiopental 70 mg/kg i.p.
[7] = 1.0 mg/kg i.p. 30 min before thiopental 70 mg/kg i.p.
[8] = 5.0 mg/kg i.p. 30 min before thiopental 70 mg/kg i.p.
[9] = 10.0 mg/kg i.p. 30 min before thiopental 70 mg/kg i.p.

duration of sleep after sodium thiopental [1, 6]: 42.8 ± 13.5 min | latent time of sleep after sodium thiopental [1, 6]: 3.0 ± 0.3 s | duration of sleep after sodium thiopental [1, 7]: 32.5 ± 7.9 min | latent time of sleep after sodium thiopental [1, 7]: 2.7 ± 0.3 s | duration of sleep after sodium thiopental [1, 8]: 50.7 ± 11.0 min | latent time of sleep after sodium thiopental [1, 8]: 2.8 ± 0.3 s | duration of sleep after sodium thiopental [1, 9]: 45.1 ± 10.6 min | latent time of sleep after sodium thiopental [1, 9]: 2.5 ± 0.1 s
Compound: C=CCSc1nc2ccc(OCC)cc2[nH]1 [IV, 2-Allylthio-5-ethoxybenzimidazole]
effect on locomotor activity of C57B1/6 mice in open-field test, in words [2]: without any changes in locomotor activity | Number of defecations ([3]; 0.1 mg/kg i.p.): 0.6 ± 0.5 | Peripheral activity (crossings) ([3]; 0.1 mg/kg i.p.): 12.6 ± 2.6 | Total activity ([3]; 0.1 mg/kg i.p.): 12.6 ± 2.6 | Peripheral activity (crossings) ([3]; 1.0 mg/kg i.p.): 11.4 ± 2.3 | Total activity ([3]; 1.0 mg/kg i.p.): 11.4 ± 2.3 | Number of defecations ([3]; 5.0 mg/kg i.p.): 1.7 ± 0.8 | Peripheral activity (crossings) ([3]; 5.0 mg/kg i.p.): 13.6 ± 3.5 | Total activity ([3]; 5.0 mg/kg i.p.): 13.6 ± 3.5 | Number of defecations ([3]; 10.0 mg/kg i.p.): 3.0 ± 0.7 | Peripheral activity (crossings) ([3]; 10.0 mg/kg i.p.): 9.5 ± 1.9 | Total activity ([3]; 10.0 mg/kg i.p.): 9.5 ± 1.9 | Number of defecations ([3]; 20.0 mg/kg i.p.): 2.5 ± 0.7 | Peripheral activity (crossings) ([3]; 20.0 mg/kg i.p.): 8.9 ± 2.0 | Total activity ([3]; 20.0 mg/kg i.p.): 8.9 ± 2.0 | effect on the behavior (locomotor activity) of Balb/c mice in open-field test, in words [3]: able to activate the behavior of Balb/c mice | number of punished lickings (shocks received in 5-min session) ([4]; 1.0 mg/kg i.p.): 29.7 ± 5.3 | number of punished lickings (shocks received in 5-min session) ([4]; 5.0 mg/kg i.p.): 31.0 ± 5.6 | number of punished lickings (shocks received in 5-min session) ([4]; 10.0 mg/kg i.p.): 35.8 ± 7.8 | number of punished lickings (shocks received in 5-min session) ([4]; 20.0 mg/kg i.p.): 62.3 ± 19.5 | time of remaining on the rotarod ([5]; 0.1 mg/kg): 120 + 0 sec | time of remaining on the rotarod ([5]; 1.0 mg/kg): 120 + 0 sec | time of remaining on the rotarod ([5]; 5.0 mg/kg): 120 + 0 sec | time of remaining on the rotarod ([5]; 10.0 mg/kg): 120 + 0 sec | time of remaining on the rotarod ([5]; 20.0 mg/kg): 120 + 0 sec

duration of sleep after sodium thiopental [1, 6]: 91.0 ± 17.8 min | latent time of sleep after sodium thiopental [1, 6]: 2.5 ± 0.5 s | latent time of sleep after sodium thiopental [1, 7]: 2.5 ± 0.2 s | duration of sleep after sodium thiopental [1, 8]: 86.4 ± 13.9 min | latent time of sleep after sodium thiopental [1, 8]: 2.2 ± 0.2 s | duration of sleep after sodium thiopental [1, 9]: 70.6 ± 9.0 min | latent time of sleep after sodium thiopental [1, 9]: 2.9 ± 0.4 s
Compound: Cc1cc2nc(SCCN3CCCCC3)[nH]c2cc1C [XIV, 2-[2-(Piperidino)ethylthio]-5,6-dimethylbenzimidazole]
effect on locomotor activity of C57B1/6 mice in open-field test, in words [2]: without any changes in locomotor activity | Central activity (crossings) ([3]; 0.1 mg/kg i.p.): 1.1 ± 0.7 | Number of defecations ([3]; 0.1 mg/kg i.p.): 1.3 ± 0.5 | Peripheral activity (crossings) ([3]; 0.1 mg/kg i.p.): 27.0 ± 6.3 | Total activity ([3]; 0.1 mg/kg i.p.): 28.2 ± 7.1 | Vertical activity (rearings) ([3]; 0.1 mg/kg i.p.): 0.1 ± 0.1 | Central activity (crossings) ([3]; 0.5 mg/kg i.p.): 4.7 ± 2.7 | Number of defecations ([3]; 0.5 mg/kg i.p.): 1.0 ± 0.4 | Peripheral activity (crossings) ([3]; 0.5 mg/kg i.p.): 44.4 ± 9.2 | Total activity ([3]; 0.5 mg/kg i.p.): 49.4 ± 10.7 | Vertical activity (rearings) ([3]; 0.5 mg/kg i.p.): 0.3 ± 0.3 | Central activity (crossings) ([3]; 1.0 mg/kg i.p.): 0.9 ± 0.8 | Number of defecations ([3]; 1.0 mg/kg i.p.): 2.9 ± 0.7 | Peripheral activity (crossings) ([3]; 1.0 mg/kg i.p.): 38.7 ± 4.8 | Total activity ([3]; 1.0 mg/kg i.p.): 39.7 ± 5.7 | Vertical activity (rearings) ([3]; 1.0 mg/kg i.p.): 0.1 ± 0.1 | Central activity (crossings) ([3]; 5.0 mg/kg i.p.): 2.8 ± 1.8 | Number of defecations ([3]; 5.0 mg/kg i.p.): 0.7 ± 0.7 | Peripheral activity (crossings) ([3]; 5.0 mg/kg i.p.): 58.7 ± 7.2 | Total activity ([3]; 5.0 mg/kg i.p.): 61.3 ± 9.0 | Number of defecations ([3]; 10.0 mg/kg i.p.): 2.0 ± 0.9 | Peripheral activity (crossings) ([3]; 10.0 mg/kg i.p.): 67.8 ± 11.1 | Total activity ([3]; 10.0 mg/kg i.p.): 67.8 ± 11.1 | Central activity (crossings) ([3]; 20.0 mg/kg i.p.): 3.4 ± 3.4 | Number of defecations ([3]; 20.0 mg/kg i.p.): 0.1 ± 0.1 | Peripheral activity (crossings) ([3]; 20.0 mg/kg i.p.): 17.3 ± 8.0 | Total activity ([3]; 20.0 mg/kg i.p.): 20.8 ± 9.6 | Vertical activity (rearings) ([3]; 20.0 mg/kg i.p.): 0.1 ± 0.1 | effect on the behavior (locomotor activity) of Balb/c mice in open-field test, in words [3]: able to activate the behavior of Balb/c mice | number of punished lickings (shocks received in 5-min session) ([4]; 1.0 mg/kg i.p.): 31.6 ± 7.6 | number of punished lickings (shocks received in 5-min session) ([4]; 5.0 mg/kg i.p.): 32.9 ± 5.8 | number of punished lickings (shocks received in 5-min session) ([4]; 10.0 mg/kg i.p.): 36.0 ± 9.4 | number of punished lickings (shocks received in 5-min session) ([4]; 20.0 mg/kg i.p.): 42.3 ± 10.8 | time of remaining on the rotarod ([5]; 0.1 mg/kg): 120 + 0 sec | time of remaining on the rotarod ([5]; 1.0 mg/kg): 120 + 0 sec | time of remaining on the rotarod ([5]; 5.0 mg/kg): 120 + 0 sec | time of remaining on the rotarod ([5]; 10.0 mg/kg): 120 + 0 sec | time of remaining on the rotarod ([5]; 20.0 mg/kg): 120 + 0 sec
